Data on three molecules can be found in publication PMC9268448, “Synthesis of 4,5-Dihydro-1H-[1,2]dithiolo[3,4-c]quinoline-1-thione Derivatives and Their Application as Protein Kinase Inhibitors” (Molecules, 2022).

The target of one data set is T1, NPM1-ALK (Homo sapiens, UniProt Q9UM73).
T1 construct: NPM1 (nucleophosmin, P06748) fusion partner
As to the kind of experiment: Kinase inhibition ELISA, NPM1-ALK. It counts as biochemical. The note with it: 10 μM test compound, 150 μM ATP. The procedure: (§1) Study of inhibitory activity. […] The enzymatic reaction was stopped with a buffer containing 20 mM HEPES (Sigma, H4034), pH 7.5, and 150 mM EDTA (Sigma, E5513). […] Incubation was carried out for 1 h at room temperature. […] After completion of each incubation step (60 min at room temperature (~20 °C) and continuous stirring), the plates were washed three times from unbound antibody molecules with a PBS solution with Tween-20 and 100 μL of substrate (3.3′,5.5′-tetramethylbenzidine (TMB) dihydrochloride, Sigma, T8768) prepared according to the manufacturer’s instructions. Before measuring the optical density, the reaction was stopped using 0.5 M Н2SO4. The optical density of the solution was determined at λ = 450 nm using a tablet spectrophotometer (TECAN Safire). The data obtained were processed and imported into the HTSCalc program.
(§2) The data were analyzed using GraphPad Prism software (v. 3.1).

The next data set addresses ALK (Homo sapiens, UniProt Q9UM73). The data set is described as follows: Kinase inhibition ELISA, ALK. It counts as biochemical. The note with it: 10 μM test compound, 150 μM ATP. The procedure:
(§3) Study of inhibitory activity. The kinase activity was determined by enzyme-linked immunosorbent assay (ELISA) in polypropylene plates (Costar, 3363) in reaction buffer (20 mM HEPES, pH 7.5, 15 mM MgCl2, 2 mM DTT, 0.2 mM Na3VO4, 0.005% Triton X-100) for 60 min at 30 °C with vigorous stirring. The final concentration of the reaction components: 0.05 μg mL^–1 of the corresponding kinase, 5 nM Histon H3 biotinylated substrate (1–21) (Anaspec, 61702), 150 μM ATP (Sigma, A6419), 10 μM test compound, 5% DMSO. The enzymatic reaction was stopped with a buffer containing 20 mM HEPES (Sigma, H4034), pH 7.5, and 150 mM EDTA (Sigma, E5513). Further, to detect the phosphorylated substrate, the reaction mixture was transferred to pre-prepared plates (Nunc, 468667) coated with neutravidin (1 ng per well; Pierce, 31000) and treated with bovine serum albumin (BSA) to block non-specific binding sites. Incubation was carried out for 1 h at room temperature. After washing the plates three times with phosphate buffer saline (PBS, pH 7.4) with Tween-20, they were incubated sequentially with anti-phospho-Histon H3 antibodies (0.3 ng μL^–1; Millipore, 04-746) and with specific antibodies conjugated with an enzyme-label (peroxidase) Anti-rabbit IgG, HRP-linked Antibody (titer 1/5000; Cell Signaling, 7074). After completion of each incubation step (60 min at room temperature (~20 °C) and continuous stirring), the plates were washed three times from unbound antibody molecules with a PBS solution with Tween-20 and 100 μL of substrate (3.3′,5.5′-tetramethylbenzidine (TMB) dihydrochloride, Sigma, T8768) prepared according to the manufacturer’s instructions. Before measuring the optical density, the reaction was stopped using 0.5 M Н2SO4. The optical density of the solution was determined at λ = 450 nm using a tablet spectrophotometer (TECAN Safire). The data obtained were processed and imported into the HTSCalc program.

The next data set addresses EGFR[L858R][T790] (Homo sapiens, UniProt P00533, L858R/T790M). As to the kind of experiment: Kinase inhibition ELISA, EGFR[L858R][T790]. The note with it: 10 μM test compound, 150 μM ATP. It counts as biochemical. How it is done: as §3
For another data set, the target named is cRAF[Y340D][Y341D] (Homo sapiens, UniProt P04049, Y340D/Y341D). The data set is described as follows: Kinase inhibition ELISA, cRAF[Y340D][Y341D]. It counts as biochemical. The conditions noted are these: 10 μM test compound, 150 μM ATP. The procedure:
as §1, §2

For the next data set, the target named is JAK2 (Homo sapiens, UniProt O60674). The data set is described as follows: Kinase inhibition ELISA, JAK2. The conditions noted are these: 10 μM test compound, 150 μM ATP. It counts as biochemical. How it is done: as §3
Sequence of JAK2 (O60674 whole entry): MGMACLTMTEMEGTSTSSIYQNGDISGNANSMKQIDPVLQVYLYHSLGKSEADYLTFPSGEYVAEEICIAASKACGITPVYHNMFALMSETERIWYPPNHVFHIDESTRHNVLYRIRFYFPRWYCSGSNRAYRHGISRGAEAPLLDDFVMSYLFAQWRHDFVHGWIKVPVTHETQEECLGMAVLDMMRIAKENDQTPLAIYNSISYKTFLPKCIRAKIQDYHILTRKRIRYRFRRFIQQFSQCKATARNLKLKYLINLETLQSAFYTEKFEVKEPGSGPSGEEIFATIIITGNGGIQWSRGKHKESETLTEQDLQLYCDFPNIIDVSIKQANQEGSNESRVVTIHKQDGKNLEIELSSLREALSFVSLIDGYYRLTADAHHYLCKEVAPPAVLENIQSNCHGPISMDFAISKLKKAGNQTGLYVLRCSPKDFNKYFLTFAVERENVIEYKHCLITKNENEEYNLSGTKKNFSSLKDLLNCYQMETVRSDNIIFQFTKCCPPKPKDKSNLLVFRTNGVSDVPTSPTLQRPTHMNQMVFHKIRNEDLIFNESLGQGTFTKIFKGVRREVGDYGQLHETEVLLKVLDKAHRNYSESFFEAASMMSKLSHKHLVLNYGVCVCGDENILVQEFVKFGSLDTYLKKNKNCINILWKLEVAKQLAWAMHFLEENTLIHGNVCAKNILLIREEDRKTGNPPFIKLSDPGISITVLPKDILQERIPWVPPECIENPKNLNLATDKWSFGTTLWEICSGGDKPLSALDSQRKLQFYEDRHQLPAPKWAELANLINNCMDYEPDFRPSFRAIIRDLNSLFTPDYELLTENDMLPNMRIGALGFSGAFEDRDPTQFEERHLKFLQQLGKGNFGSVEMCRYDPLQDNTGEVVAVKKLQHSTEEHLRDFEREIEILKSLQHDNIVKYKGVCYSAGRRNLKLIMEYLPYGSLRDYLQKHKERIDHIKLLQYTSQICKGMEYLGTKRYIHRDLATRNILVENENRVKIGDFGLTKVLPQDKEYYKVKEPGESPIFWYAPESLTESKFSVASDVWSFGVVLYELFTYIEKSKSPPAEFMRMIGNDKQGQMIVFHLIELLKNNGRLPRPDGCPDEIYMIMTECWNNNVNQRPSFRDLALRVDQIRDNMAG
The next data set concerns the target T2, JAK3 (Homo sapiens, UniProt P52333).
T2 sequence (P52333 1-1124): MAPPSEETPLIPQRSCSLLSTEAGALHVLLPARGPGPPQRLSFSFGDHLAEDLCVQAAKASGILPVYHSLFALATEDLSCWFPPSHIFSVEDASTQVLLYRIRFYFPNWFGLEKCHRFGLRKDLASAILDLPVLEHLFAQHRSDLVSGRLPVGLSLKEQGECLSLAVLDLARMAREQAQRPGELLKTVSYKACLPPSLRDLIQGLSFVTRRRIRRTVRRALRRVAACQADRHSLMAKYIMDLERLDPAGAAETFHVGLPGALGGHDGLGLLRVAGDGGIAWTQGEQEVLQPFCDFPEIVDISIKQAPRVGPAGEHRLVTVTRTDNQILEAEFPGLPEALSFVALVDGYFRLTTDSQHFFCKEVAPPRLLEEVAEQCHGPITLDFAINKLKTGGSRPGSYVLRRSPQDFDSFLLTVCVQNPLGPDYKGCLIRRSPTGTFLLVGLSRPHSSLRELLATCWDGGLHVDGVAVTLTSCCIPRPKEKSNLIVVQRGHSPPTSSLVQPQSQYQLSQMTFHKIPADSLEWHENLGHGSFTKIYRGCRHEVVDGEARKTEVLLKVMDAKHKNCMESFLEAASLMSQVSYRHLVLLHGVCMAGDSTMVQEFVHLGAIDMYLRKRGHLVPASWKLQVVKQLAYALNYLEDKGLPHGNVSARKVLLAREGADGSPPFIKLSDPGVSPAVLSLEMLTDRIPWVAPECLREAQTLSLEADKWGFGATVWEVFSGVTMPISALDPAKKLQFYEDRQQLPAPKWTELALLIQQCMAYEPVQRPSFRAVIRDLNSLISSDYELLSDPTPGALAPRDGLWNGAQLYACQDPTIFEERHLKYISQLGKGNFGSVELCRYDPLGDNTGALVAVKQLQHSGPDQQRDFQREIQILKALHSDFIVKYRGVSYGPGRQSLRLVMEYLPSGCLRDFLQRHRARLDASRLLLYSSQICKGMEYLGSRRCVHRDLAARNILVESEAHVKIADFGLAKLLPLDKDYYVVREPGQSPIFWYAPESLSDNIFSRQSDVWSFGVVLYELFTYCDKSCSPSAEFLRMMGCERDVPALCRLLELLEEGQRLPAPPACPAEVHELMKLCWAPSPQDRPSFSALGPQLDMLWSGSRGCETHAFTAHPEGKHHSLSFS
As to the kind of experiment: Kinase inhibition ELISA, JAK3. It counts as biochemical. The conditions noted are these: 10 μM test compound, 150 μM ATP. The procedure: as §3
(§4) For compounds 2a–c,q, the IC50 value (μmol L^–1) was calculated from ten concentration points (in triplicate dilution) obtained twice. The data were analyzed using GraphPad Prism software (v. 3.1).

Data set [1] relates to protein kinases NPM1-ALK, ALK, EGFR[L858R][T790], cRAF[Y340D][Y341D], JAK2, and JAK3. As to the kind of experiment: Kinase inhibition ELISA, summary over the studied protein kinases. The data set is classed as biochemical, human. The note with it: primary screening, 10 μM test compound. How it is done: Study of inhibitory activity. The kinase activity was determined by enzyme-linked immunosorbent assay (ELISA) in polypropylene plates (Costar, 3363) in reaction buffer (20 mM HEPES, pH 7.5, 15 mM MgCl2, 2 mM DTT, 0.2 mM Na3VO4, 0.005% Triton X-100) for 60 min at 30 °C with vigorous stirring. The final concentration of the reaction components: 0.05 μg mL^–1 of the corresponding kinase, 5 nM Histon H3 biotinylated substrate (1–21) (Anaspec, 61702), 150 μM ATP (Sigma, A6419), 10 μM test compound, 5% DMSO. The enzymatic reaction was stopped with a buffer containing 20 mM HEPES (Sigma, H4034), pH 7.5, and 150 mM EDTA (Sigma, E5513). Further, to detect the phosphorylated substrate, the reaction mixture was transferred to pre-prepared plates (Nunc, 468667) coated with neutravidin (1 ng per well; Pierce, 31000) and treated with bovine serum albumin (BSA) to block non-specific binding sites. Incubation was carried out for 1 h at room temperature. […] The optical density of the solution was determined at λ = 450 nm using a tablet spectrophotometer (TECAN Safire). […]
as §4

Data set [2] can be described thus: Solubility in DMSO (noted during NMR). The conditions noted are these: in words; NMR sample in DMSO. It counts as physicochemical. The procedure:
The signal for the carbon atom of the imino group at 166.6 ppm was detected in the spectrum of the arylimino derivative 2q. In the mass spectra of compounds 2h, 2i–n, and 2q, peaks of protonated molecular ions, consistent with the structure of these compounds, were observed.

Molecules are shown by their SMILES. Where only a bound is given, the exact number is not on record here.

T1 sequence (Q9UM73 whole entry, looked up, the tested form may be a part): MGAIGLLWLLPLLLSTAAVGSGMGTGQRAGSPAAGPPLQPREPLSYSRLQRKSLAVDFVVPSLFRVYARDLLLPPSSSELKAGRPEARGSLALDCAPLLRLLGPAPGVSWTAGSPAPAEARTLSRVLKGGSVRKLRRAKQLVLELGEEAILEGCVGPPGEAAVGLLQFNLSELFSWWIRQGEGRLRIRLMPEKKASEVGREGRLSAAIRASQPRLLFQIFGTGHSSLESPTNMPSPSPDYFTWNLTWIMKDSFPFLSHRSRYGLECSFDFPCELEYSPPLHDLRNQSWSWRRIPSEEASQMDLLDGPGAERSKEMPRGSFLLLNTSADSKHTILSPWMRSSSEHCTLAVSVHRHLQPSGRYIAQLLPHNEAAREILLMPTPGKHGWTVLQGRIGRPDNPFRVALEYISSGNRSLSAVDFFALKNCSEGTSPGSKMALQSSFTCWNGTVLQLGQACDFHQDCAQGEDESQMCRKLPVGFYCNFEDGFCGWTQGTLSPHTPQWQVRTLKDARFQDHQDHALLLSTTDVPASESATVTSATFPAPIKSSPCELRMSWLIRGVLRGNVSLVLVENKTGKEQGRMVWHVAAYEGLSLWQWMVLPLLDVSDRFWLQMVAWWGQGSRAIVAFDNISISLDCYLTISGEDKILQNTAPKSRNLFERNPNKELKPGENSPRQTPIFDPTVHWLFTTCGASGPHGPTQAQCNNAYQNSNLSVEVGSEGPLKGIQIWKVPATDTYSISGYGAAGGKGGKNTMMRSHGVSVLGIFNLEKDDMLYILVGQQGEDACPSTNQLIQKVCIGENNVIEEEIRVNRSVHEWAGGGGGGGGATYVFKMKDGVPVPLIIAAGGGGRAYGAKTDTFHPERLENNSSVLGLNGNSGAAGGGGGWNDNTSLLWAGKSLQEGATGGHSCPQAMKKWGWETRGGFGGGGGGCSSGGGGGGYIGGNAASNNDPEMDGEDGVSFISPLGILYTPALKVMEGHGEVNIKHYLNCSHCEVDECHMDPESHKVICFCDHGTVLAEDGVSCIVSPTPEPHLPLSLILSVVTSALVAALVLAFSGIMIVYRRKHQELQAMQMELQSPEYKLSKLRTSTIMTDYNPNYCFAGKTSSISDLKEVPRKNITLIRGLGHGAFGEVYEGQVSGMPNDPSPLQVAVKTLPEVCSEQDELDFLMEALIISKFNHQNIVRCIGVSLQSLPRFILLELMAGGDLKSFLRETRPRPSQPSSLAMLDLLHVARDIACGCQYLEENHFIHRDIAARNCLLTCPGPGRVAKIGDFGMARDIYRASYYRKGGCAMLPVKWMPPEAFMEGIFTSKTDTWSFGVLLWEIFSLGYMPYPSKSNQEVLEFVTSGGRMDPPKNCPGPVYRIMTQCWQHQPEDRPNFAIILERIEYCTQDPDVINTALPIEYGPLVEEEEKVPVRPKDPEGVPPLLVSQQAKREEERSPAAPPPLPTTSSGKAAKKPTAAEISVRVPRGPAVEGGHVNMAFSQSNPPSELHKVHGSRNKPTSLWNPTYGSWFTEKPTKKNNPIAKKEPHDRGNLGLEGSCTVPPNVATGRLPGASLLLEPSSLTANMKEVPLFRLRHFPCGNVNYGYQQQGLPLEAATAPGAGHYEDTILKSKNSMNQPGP
Sequence of ALK (Q9UM73 19-1620): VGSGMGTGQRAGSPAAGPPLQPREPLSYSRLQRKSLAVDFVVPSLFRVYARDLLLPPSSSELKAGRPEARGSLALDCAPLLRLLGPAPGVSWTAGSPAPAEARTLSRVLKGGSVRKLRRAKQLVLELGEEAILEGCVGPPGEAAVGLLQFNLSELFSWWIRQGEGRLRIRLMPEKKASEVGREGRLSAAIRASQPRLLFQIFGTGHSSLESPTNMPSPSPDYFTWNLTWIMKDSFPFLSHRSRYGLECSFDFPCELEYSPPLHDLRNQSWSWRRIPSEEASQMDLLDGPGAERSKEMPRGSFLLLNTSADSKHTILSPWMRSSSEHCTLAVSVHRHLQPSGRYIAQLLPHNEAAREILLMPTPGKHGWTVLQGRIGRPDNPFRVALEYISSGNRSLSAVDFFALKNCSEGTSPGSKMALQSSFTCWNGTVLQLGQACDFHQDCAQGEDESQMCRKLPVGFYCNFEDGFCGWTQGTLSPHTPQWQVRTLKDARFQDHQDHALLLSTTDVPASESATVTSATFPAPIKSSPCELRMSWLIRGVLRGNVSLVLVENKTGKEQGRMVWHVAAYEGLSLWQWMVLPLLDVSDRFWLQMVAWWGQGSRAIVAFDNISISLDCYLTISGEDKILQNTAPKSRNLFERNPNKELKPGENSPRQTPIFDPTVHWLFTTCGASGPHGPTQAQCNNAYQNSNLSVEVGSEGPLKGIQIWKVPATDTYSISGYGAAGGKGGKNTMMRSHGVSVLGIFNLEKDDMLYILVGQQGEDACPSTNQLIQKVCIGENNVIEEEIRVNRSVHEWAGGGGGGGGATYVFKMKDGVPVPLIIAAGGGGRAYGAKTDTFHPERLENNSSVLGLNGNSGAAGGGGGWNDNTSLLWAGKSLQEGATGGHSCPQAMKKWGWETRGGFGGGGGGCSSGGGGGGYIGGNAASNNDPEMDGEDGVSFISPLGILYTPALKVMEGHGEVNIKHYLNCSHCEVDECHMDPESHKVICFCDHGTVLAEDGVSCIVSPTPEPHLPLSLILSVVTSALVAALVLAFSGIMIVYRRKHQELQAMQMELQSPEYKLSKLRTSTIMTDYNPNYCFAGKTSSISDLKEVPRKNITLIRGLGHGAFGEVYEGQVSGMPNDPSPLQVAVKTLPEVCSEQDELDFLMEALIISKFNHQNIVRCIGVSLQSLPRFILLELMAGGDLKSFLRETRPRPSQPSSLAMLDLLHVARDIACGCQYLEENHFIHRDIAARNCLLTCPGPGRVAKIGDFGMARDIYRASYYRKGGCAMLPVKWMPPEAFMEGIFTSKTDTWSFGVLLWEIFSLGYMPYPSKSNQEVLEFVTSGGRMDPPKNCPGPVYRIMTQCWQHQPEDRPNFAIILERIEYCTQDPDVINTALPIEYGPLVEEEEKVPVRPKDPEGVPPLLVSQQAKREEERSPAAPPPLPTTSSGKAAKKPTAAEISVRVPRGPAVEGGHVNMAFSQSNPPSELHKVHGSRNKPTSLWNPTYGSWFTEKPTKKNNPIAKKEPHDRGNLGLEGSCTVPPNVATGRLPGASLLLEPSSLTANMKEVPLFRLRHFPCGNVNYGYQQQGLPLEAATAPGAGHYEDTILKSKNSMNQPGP
Sequence of EGFR[L858R][T790] (P00533 669-1210 T790M/L858R limits assumed): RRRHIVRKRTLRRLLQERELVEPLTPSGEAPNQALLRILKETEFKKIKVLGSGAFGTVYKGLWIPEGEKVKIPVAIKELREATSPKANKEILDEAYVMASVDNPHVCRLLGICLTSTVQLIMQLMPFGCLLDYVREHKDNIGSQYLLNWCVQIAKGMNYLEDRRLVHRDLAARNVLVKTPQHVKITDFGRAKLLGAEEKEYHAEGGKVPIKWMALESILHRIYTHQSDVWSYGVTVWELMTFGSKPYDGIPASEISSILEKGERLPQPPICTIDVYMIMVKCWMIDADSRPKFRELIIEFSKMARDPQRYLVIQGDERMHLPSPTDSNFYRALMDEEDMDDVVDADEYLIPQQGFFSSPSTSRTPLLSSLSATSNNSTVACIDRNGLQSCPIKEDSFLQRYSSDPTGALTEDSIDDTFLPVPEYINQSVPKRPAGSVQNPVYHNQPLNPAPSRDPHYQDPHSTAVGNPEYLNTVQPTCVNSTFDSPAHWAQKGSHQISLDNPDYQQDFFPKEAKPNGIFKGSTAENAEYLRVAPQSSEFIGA

As to `CC1(C)c2ssc(=S)c2-c2cc3c(cc2N1C(=O)c1ccccc1F)OCCO3` [2m, 5-(2-Fluorobenzoyl)-4,4-dimethyl-4,5,8,9-tetrahydro-1H-[1,4]dioxino[2,3-g][1,2]dithiolo[3,4-c]quinoline-1-thione], the melting point was in the range of 234 to 235 °C. Also, at NPM1-ALK, the inhibition at 10 µM was determined as 6%. Besides, the inhibition at 10 µM against ALK was -4%. Besides, the inhibition at 10 µM on EGFR[L858R][T790] was determined as 10%. The inhibition at 10 µM against cRAF[Y340D][Y341D] turned out to be 35%. Further, at JAK2, the inhibition at 10 µM was 1%. Besides, on JAK3, the inhibition at 10 µM was found to be 23%. Also, the “inhibitory activity against the studied protein kinases (in words)” value in [1] is on record as “very low activity”.

Molecule `COc1ccc2c(c1)-c1c(ssc1=S)C(C)(C)N2C(=O)CN1C(=O)C2CCCCC2C1=O` (stereo not drawn) [2k, 2-[2-(8-Methoxy-4,4-dimethyl-1-thioxo-1,4-dihydro-5H-[1,2]dithiolo[3,4-c]quinolin-5-yl)-2-oxoethyl]hexahydro-1H-isoindole-1,3(2H)-dione] yielded a melting point of 205 to 206 °C. Further, the inhibition at 10 µM against NPM1-ALK was 27%. For the same molecule, at ALK, the inhibition at 10 µM turned out to be 18%. Besides, the inhibition at 10 µM on EGFR[L858R][T790] was -2%. The inhibition at 10 µM on cRAF[Y340D][Y341D] stood at 41%. The inhibition at 10 µM on JAK2 was 3%. Besides, the inhibition at 10 µM against JAK3 amounted to 26%. Also, the “inhibitory activity against the studied protein kinases (in words)” value in data set [1] is recorded as “very low activity”.

With `CC1(C)c2ssc(=S)c2-c2cc3c(c4c2N1C(=O)C4=O)OCCO3` [2n, 8,8-Dimethyl-11-thioxo-2,3,8,11-tetrahydro[1,4]dioxino[2,3-g][1,2]dithiolo[3,4-c]pyrrolo[3,2,1-ij]quinoline-5,6-dione], the melting point was greater than 260 °C. Besides, on NPM1-ALK, the inhibition at 10 µM was 24%. Further, on ALK, the inhibition at 10 µM was 19%. Moreover, at EGFR[L858R][T790], the inhibition at 10 µM came to 5%. Besides, the inhibition at 10 µM on cRAF[Y340D][Y341D] turned out to be 13%. Moreover, the inhibition at 10 µM on JAK2 amounted to 47%. On JAK3, the inhibition at 10 µM was determined as 52%. Besides, the “solubility in DMSO” value in [2] was “low solubility in DMSO”.
